# Patent US10597390B2, “Indoles for use in influenza virus infection” (Janssen Sciences Ireland UC, priority 2014, dated 2020)
# What was measured:
# in vitro = conditions: dog, TOX MDCK CC50
# [1] = tested on: influenza virus A/Taiwan/1/86 (H1N1); test: organism not typed; assay type: cell-based; conditions: CPE in MDCK cells, three days post-virus exposure, ATPlite
Compound,CC50 at 3 days (in vitro) [µM],"IC50 ([1]; MDCK, 72 h) [µM]",IC50 [1] [µM]
CC(C)c1cc(C(=O)N[C@H]2CCC[C@@H](Nc3nc(-c4c[nH]c5c(F)cc(F)cc45)c(C(F)(F)F)cc3F)C2)no1 (racemic) [Compound 182],> 25,,
"C[C@H]1CC[C@H](C)N1C(=O)N[C@H]1CCC[C@@H](Nc2nc(-c3c[nH]c4c(F)cc(F)cc34)ncc2F)C1 (relative stereo) [Compound 14, N-((1R*3S*)-3-((2-(5,7-difluoro-1H-indol-3-yl)-5-fluoropyrimidin-4-yl)amino)cyclohexyl)-trans-2,5-dimethylpyrrolidine-1-carboxamide]",10.4,0.14,
"Cn1nc(CO)cc1C(=O)N[C@@H]1CCC[C@H](Nc2nc(-c3c[nH]c4c(F)cc(F)cc34)ncc2F)C1 (relative stereo) [Compound 262, N-((1R*,3S*)-3-((2-(5,7-difluoro-1H-indol-3-yl)-5-fluoropyrimidin-4-yl)-amino)cyclohexyl)-3-(hydroxymethyl)-1-methyl-1H-pyrazole-5-carboxamide]",> 25,0.046,
C=Cn1cnc(C(=O)N[C@@H]2CCC[C@H](Nc3nc(-c4c[nH]c5c(F)cc(F)cc45)ncc3F)C2)c1 [Compound 89],7.3,0.004,
O=C(O)[C@H]1C2CCC(CC2)[C@@H]1Nc1nc(-c2c[nH]c3c(F)cc(Cl)cc23)ncc1F [Compound 30],0.2,0.003,
O=C(N[C@@H]1CCC[C@H](Nc2nc(-c3c[nH]c4c(F)cc(F)cc34)ncc2F)C1)c1ccc(O)nn1 [Compound 203],> 25,0.002,
"O=C(N[C@H]1CCC[C@@H](Nc2nc(-c3c[nH]c4c(F)cc(F)cc34)ncc2F)C1)N1CCCC1 (single isomer, unassigned) [Compound 9, N-((1R*,3S*)-3-((2-(5,7-difluoro-1H-indol-3-yl)-5-fluoropyrimidin-4-yl)-amino)cyclohexyl)pyrrolidine-1-carboxamide]",> 25,0.003,
Cn1cnc(C(=O)N[C@@H]2CCC[C@H](Nc3nc(-c4c[nH]c5c(F)cc(Cl)cc45)ncc3F)C2)c1 [Compound 26],7.9,0.003,
"CC(C)(C)[C@@H](CC(=O)O)Nc1nc(-c2c[nH]c3c(F)cc(F)cc23)c(C(F)(F)F)cc1F (single isomer, unassigned) [Compound 18, (R*)-3-((6-(5,7-difluoro-1H-indol-3-yl)-3-fluoro-5-(trifluoromethyl)pyridin-2-yl)amino)-4,4-dimethylpentanoic acid]",0.21,> 25,
CC(=O)NCc1cc(F)c(N[C@H]2CCC[C@@H](NC(=O)c3cn(C)cn3)C2)nc1-c1c[nH]c2c(F)cc(F)cc12 (racemic) [Compound 258],> 25,0.16,
CC(C)(c1cccs1)C(CC(=O)O)Nc1nc(-c2c[nH]c3c(F)cc(F)cc23)ncc1F (stereo not shown) [Compound 230],4,0.041,
O=C(N[C@@H]1CCC[C@H](Nc2nc(-c3c[nH]c4c(F)cc(F)cc34)ncc2F)C1)c1ccc(F)cn1 (racemic) [Compound 95],> 25,0.012,
Cc1[nH]nc(C(=O)N[C@@H]2CCC[C@H](Nc3nc(-c4c[nH]c5c(F)cc(F)cc45)ncc3F)C2)c1N [Compound 86],3.1,0.002,
CN1CCC[C@H]1C(=O)N[C@H]1CCC[C@@H](Nc2nc(-c3c[nH]c4c(F)cc(F)cc34)ncc2F)C1 [Compound 82],12.9,0.27,
O=C(N[C@@H]1CCC[C@H](Nc2nc(-c3c[nH]c4c(F)cc(F)cc34)ncc2F)C1)c1ccccn1 (racemic) [Compound 90],10.9,0.009,
CC(C)(C)C(CC(=O)O)Nc1nc(-c2c[nH]c3c(F)cc(F)cc23)c(C#N)cc1F (stereo not shown) [Compound 219],0.21,0.005,
O=C(N[C@@H]1CCC[C@H](Nc2nc(-c3c[nH]c4c(F)cc(F)cc34)ncc2F)C1)c1cc(=O)[nH][nH]1 [Compound 158],13,0.015,
"CC(=O)Nc1cc(C(=O)N[C@@H]2CCC[C@H](Nc3nc(-c4c[nH]c5c(F)cc(F)cc45)ncc3F)C2)n(C)n1 (relative stereo) [Compound 228, 3-acetamido-N-((1R*,3S*)-3-((2-(5,7-difluoro-1H-indol-3-yl)-5-fluoropyrimidin-4-yl)amino)cyclohexyl)-1-methyl-1H-pyrazole-5-carboxamide]",> 25,0.009,
Cn1cnc(C(=O)N[C@@H]2CCC[C@H](Nc3nc(-c4c[nH]c5c(F)cc(F)cc45)ncc3F)C2)c1 (racemic) [Compound 92],11.4,0.004,
"Cc1cc(F)c2[nH]cc(-c3nc(NC(CC(=O)O)C(C)(C)c4ccn(C)n4)c(F)cc3C#N)c2c1 (stereo not shown) [Compound 25, 3-((5-cyano-3-fluoro-6-(7-fluoro-5-methyl-1H-indol-3-yl)pyridin-2-yl)amino)-4-methyl-4-(1-methyl-1H-pyrazol-3-yl)pentanoic acid]",0.9,0.041,
CC[C@]1(C(=O)O)CCCC[C@@H]1Nc1nc(-c2c[nH]c3c(F)cc(F)cc23)ncc1F (racemic) [Compound 252],8.2,0.35,
"Cn1nc(NS(C)(=O)=O)cc1C(=O)N[C@@H]1CCC[C@H](Nc2nc(-c3c[nH]c4c(F)cc(F)cc34)ncc2F)C1 (relative stereo) [Compound 226, N-((1R*,3S*)-3-((2-(5,7-difluoro-1H-indol-3-yl)-5-fluoropyrimidin-4-yl)-amino)cyclohexyl)-1-methyl-3-(methylsulfonamido)-1H-pyrazole-5-carboxamide]",17.5,0.003,

Compound,CC50 at 3 days (in vitro) [µM],"IC50 ([1]; MDCK, 72 h) [µM]",IC50 [1] [µM]
O=C(N[C@@H]1CCC[C@H](Nc2nc(-c3c[nH]c4c(F)cc(Cl)cc34)ncc2F)C1)c1ccccn1 [Compound 188],11,,0.005
Cc1nc(C(=O)N[C@H]2CCC[C@@H](Nc3nc(-c4c[nH]c5c(F)cc(F)cc45)c(C(F)(F)F)cc3F)C2)c(C)o1 (racemic) [Compound 179],> 25,0.081,
Cc1cc(F)c2[nH]cc(-c3ncc(F)c(N[C@H]4CCC[C@@H](NC(=O)c5cn(C)cn5)C4)n3)c2c1 (racemic) [Compound 190],13.1,0.011,
O=C(N[C@@H]1CCC[C@H](Nc2nc(-c3c[nH]c4c(F)cc(F)cc34)ncc2F)C1)c1ccno1 (racemic) [Compound 97],> 22.7,0.012,
Cn1[nH]c(=O)cc1C(=O)N[C@@H]1CCC[C@H](Nc2nc(-c3c[nH]c4c(F)cc(F)cc34)ncc2F)C1 [Compound 160],> 25,0.0006,
N#Cc1cc(F)c(N[C@H]2CCC[C@@H](NC(=O)c3ccccn3)C2)nc1-c1c[nH]c2c(F)cc(F)cc12 (racemic) [Compound 208],> 25,0.006,
CC(=O)NCc1cc(F)c(N[C@H]2CCC[C@@H](NC(=O)N3CCCC3)C2)nc1-c1c[nH]c2c(F)cc(F)cc12 (racemic) [Compound 6],> 25,0.05,
CCOC(=O)NCc1cc(F)c(NC(CC(=O)O)C(C)(C)C)nc1-c1c[nH]c2c(F)cc(F)cc12 (stereo not shown) [Compound 256],13.1,0.29,
O=C(N[C@@H]1CCC[C@H](Nc2nc(-c3c[nH]c4c(F)cc(F)cc34)ncc2F)C1)c1cn(CCO)cn1 [Compound 88],11.5,0.007,
Cn1cnc(C(=O)N[C@H]2CCC[C@H](Nc3nc(-c4c[nH]c5c(F)cc(F)cc45)c(C#N)cc3F)C2)c1 [Compound 183],> 25,1.1,
Cn1cnc(C(=O)N[C@@H]2CCC[C@H](Nc3nc(-c4c[nH]c5c(F)cc(F)cc45)c(C#N)cc3F)C2)c1 [Compound 184],> 25,0.003,
CC1(C(CC(=O)O)Nc2nc(-c3c[nH]c4c(F)cc(F)cc34)ncc2F)CCCC1 (stereo not shown) [Compound 249],1.2,0.011,
Cc1cc(C(=O)N[C@H]2CCC[C@@H](Nc3nc(-c4c[nH]c5c(F)cc(F)cc45)c(C(F)(F)F)cc3F)C2)nn1C (racemic) [Compound 177],14.7,0.038,
N#Cc1cc(F)c(N[C@H]2CCC[C@@H](NC(=O)N3CCCC3)C2)nc1-c1c[nH]c2c(F)cc(F)cc12 (racemic) [Compound 4],> 25,0.004,
O=C(N[C@H]1CCC[C@@H](Nc2nc(-c3c[nH]c4c(F)cc(F)cc34)c(C(F)(F)F)cc2F)C1)c1cnccn1 (racemic) [Compound 180],> 25,0.02,
Cc1cc(C(=O)N[C@@H]2CCC[C@H](Nc3nc(-c4c[nH]c5c(F)cc(F)cc45)c(C#N)cc3F)C2)nn1C (racemic) [Compound 210],> 25,,0.012
O=C(O)[C@@H]1CCCC[C@@H]1Nc1nc(-c2c[nH]c3c(F)cc(F)cc23)ncc1F [Compound 254],14.7,0.32,
N#Cc1cc(F)c(N[C@@H]2CCC[C@H](NC(=O)N3CCCC3)C2)nc1-c1c[nH]c2c(F)cc(F)cc12 [Compound 162],> 23,,0.0005
"Cn1nc(C(=O)O)cc1C(=O)N[C@@H]1CCC[C@H](Nc2nc(-c3c[nH]c4c(F)cc(F)cc34)ncc2F)C1 (relative stereo) [Compound 159, 5-(((1R*,3S*)-3-((2-(5,7-difluoro-1H-indol-3-yl)-5-fluoropyrimidin-4-yl)amino)cyclohexyl)carbamoyl)-1-methyl-1H-pyrazole-3-carboxylic acid]",> 25,0.31,
Cc1cc(F)c2[nH]cc(-c3ncc(F)c(N[C@@H]4C5CCC(CC5)[C@H]4C(=O)O)n3)c2c1 [Compound 165],2.3,> 25,
Cc1cc(C(=O)N[C@H]2CCC[C@@H](Nc3nc(-c4c[nH]c5c(F)cc(F)cc45)c(C(F)(F)F)cc3F)C2)on1 (racemic) [Compound 181],16.4,0.011,
